Assay results taken from US10457709B2, “Antimicrobial peptides, their variants and uses” (priority 2015, dated 2019).
Values after ≈ are worked out from the molar mass of the structure shown. Square brackets hold non-standard residues; d marks the D form. Ends that are not written are not given here. Peptide text beside a SMILES is read from it.

Assays:
S. aureus COL (MRSA) = type: cell-based, Staphylococcus aureus
Description: (§1) Minimum inhibition concentrations (MICs) were determined against Escherichia coli (ATCC 25922), Staphylococcus aureus (ATCC 25923), Klebsiella pneumoniae (ATCC 10031) and Pseudomonas aeruginosa (ATCC 27853). Also clinical strains of E. coli, K. pneumoniae, E. cloacae, P. aeruginosa, Serratia marcescens, Proteus mirabilis, S. pneumoniae, Acinetobacter baumannii, A. johnsonii and S. aureus were used for MICs assays. Additionally, clinical strains of yeast including Candida albicans, C. glabrata, C. parapsilosis and C. quillermondiae were used. The susceptibility of these microorganisms to Chain peptides were determined using micro broth dilution assay. Colonies of the respective microorganism from Muller Hinton (MH) agar plates incubated overnight were suspended in MH broth media and final concentration of microorganism was adjusted to 5.0×10^5 cfu/ml. An aliquot of 10 μl of each Chain peptide, or gentamicin, tetracycline as reference antibiotics were added in differing concentrations along with 90 μl of bacterial suspension to 96 well polypropylene plates and incubated at 37° C. for 20 to 24 hours. Concentrations of Chain peptides and reference antibiotics ranged from 0.125 to 128 μg/ml and the MICs were recorded as the lowest concentration with no visual growth of bacteria. Similarly, antifungal MICs were tested in Potato dextrose broth.
(§2) Peptides Chain 104, Chain 105, Chain 201, Chain 308, Chain 310 were tested against antibiotic-sensitive strains of S. aureus RN4220 and methicillin resistant strains of S. aureus COL (MRSA). Chain peptides comprising of either L- or D-form amino acids were tested against these bacteria, and the D-form peptides were found have better activity compared to L-form (Table 6). Synergistic activity of chain peptides along with Ertapenem (4 μg/ml) was tested to know whether it will influence the activity against MRSA strains. […] Chain 310 has the best antibacterial activity against the MRSA strains with a MIC of 0.06 & 0.03 μg/ml along with Ertapenem (4 μg/ml) for both forms of L and D-peptides (Table 6).

S. aureus RN4220 = type: cell-based, Staphylococcus aureus; conditions: antibiotic sensitive strain S. aureus RN4220
Description: as §1, §2

[1] = system: MRSA strains (S. aureus COL); assay: MIC, synergistic activity with Ertapenem (4 μg/ml); type: cell-based, Staphylococcus aureus; conditions: S. aureus COL, synergistic activity with 4 μg/ml Ertapenem
Description: as §1, §2

[2] = system: Candida albicans clinical strains; assay: MIC, clinical yeast strains; type: cell-based; set-up: unit: μg/ml
Description: as §1
(§3) Clinical strains of yeasts including Candida albicans, C. glabrata, C. parapsilosis and C. quillermondiae were also tested with the 12 Chain peptides. The minimum inhibitory concentration (MICs) varied between these peptides and are presented in Tables 4a, 4b, 4c and 5a, 5b, 5c. Peptides Chain 105, 201 and 308 are broad spectrum antimicrobials with MICs between 0.5-32 μg/ml against all the bacteria and yeasts tested, except Serratia marcescens and Proteus mirabilis, against which the MICs were between 64-128 μg/ml. Peptide Chain 306 has narrow spectrum activity against E. coli at 1 μg/ml and for the rest of the bacterial strains at >32 μg/ml (FIG. 10c).

[3] = system: Klebsiella pneumoniae clinical strains; type: cell-based; conditions: clinical strains
Description: as §1, §3

[4] = system: Pseudomonas aeruginosa clinical strains; type: cell-based; conditions: clinical strains
Description: as §1, §3

[5] = system: Escherichia coli clinical strains; type: cell-based; conditions: clinical strains
Description: as §1, §3

[6] = system: C. parapsilosis clinical strains; assay: MIC, clinical yeast strains; type: cell-based, Candida parapsilosis; set-up: unit: µg/ml
Description: as §1, §3

[7] = system: C. quillermondiae clinical strains; assay: MIC, clinical yeast strains; type: cell-based, Candida quillermondiae; set-up: unit: μg/ml; conditions: C. quillermondiae clinical yeast strain 1
Description: as §1, §3

[8] = system: Proteus mirabilis clinical strains; type: cell-based; conditions: clinical strains
Description: as §1, §3

[9] = system: Serratia marcescens clinical strains; type: cell-based; conditions: clinical strains
Description: as §1, §3

[10] = system: Staphylococcus aureus clinical strains; type: cell-based; conditions: clinical strains
Description: as §1, §3

[11] = system: Streptococcus pneumoniae clinical strains; type: cell-based; conditions: clinical strains
Description: as §1, §3

[12] = system: Enterobacter cloacae clinical strains; type: cell-based; conditions: clinical strains
Description: as §1, §3

[13] = system: C. glabrata clinical strains; assay: MIC, clinical yeast strains; type: cell-based, Candida glabrata; set-up: unit: µg/ml
Description: as §1, §3

## CC(C)C[C@@H](NC(=O)[C@@H](CCCCN)NC(=O)[C@@H](CCCCN)NC(=O)[C@@H](Cc1ccccc1)NC(=O)[C@@H](CC(C)C)NC(=O)[C@@H](Cc1c[nH]c2ccccc12)NC(=O)[C@@H](CCCNC(=N)N)NC(=O)[C@@H](Cc1c[nH]c2ccccc12)NC(=O)[C@@H](CCCCN)NC(=O)[C@@H](CCCNC(=N)N)NC(=O)[C@H](N)CCCCN)C(=O)O [310 D] (H-[dK][dR][dK][dW][dR][dW][dL][dF][dK][dK][dL]-OH)
S. aureus COL (MRSA)
  Minimum inhibitory concentration (MIC), S. aureus COL (MRSA): >64 µg/mL
S. aureus RN4220
  Minimum inhibitory concentration (MIC), S. aureus RN4220: >64 µg/mL
[1]
  Minimum inhibitory concentration (MIC), S. aureus COL + 4 μg/ml Ertapenem: <0.03 µg/mL

## CC(C)C[C@@H](NC(=O)[C@@H](CCCCN)NC(=O)[C@@H](Cc1c[nH]c2ccccc12)NC(=O)[C@@H](CCCCN)NC(=O)[C@@H](C)NC(=O)[C@@H](Cc1c[nH]cn1)NC(=O)[C@@H](CC(C)C)NC(=O)[C@@H](CCCNC(=N)N)NC(=O)[C@@H](Cc1c[nH]c2ccccc12)NC(=O)[C@H](N)Cc1c[nH]c2ccccc12)C(=O)N[C@H](Cc1c[nH]c2ccccc12)C(=O)O [Chain109D] (H-[dW][dW][dR][dL][dH][dA][dK][dW][dK][dL][dW]-OH)
[2]; Candida albicans clinical yeast strain 1
  Minimum inhibitory concentration: 128
[2]; Candida albicans clinical yeast strain 2
  Minimum inhibitory concentration: 128
[2]; Candida albicans clinical yeast strain 3
  Minimum inhibitory concentration: 128
[2]; Candida albicans clinical yeast strain 4
  Minimum inhibitory concentration: 128
[2]; Candida albicans clinical yeast strain 5
  Minimum inhibitory concentration: 128
[3]
  MIC, Klebsiella pneumoniae strain 1: 16 µg/mL (≈ 9.94 µM)
  MIC, Klebsiella pneumoniae strain 2: 8 µg/mL (≈ 4.97 µM)
  MIC, Klebsiella pneumoniae strain 3: 8 µg/mL (≈ 4.97 µM)
  MIC, Klebsiella pneumoniae strain 4: 16 µg/mL (≈ 9.94 µM)
  MIC, Klebsiella pneumoniae strain 5: 8 µg/mL (≈ 4.97 µM)
[4]
  MIC, Pseudomonas aeruginosa strain 1: 16 µg/mL (≈ 9.94 µM)
  MIC, Pseudomonas aeruginosa strain 2: 16 µg/mL (≈ 9.94 µM)
  MIC, Pseudomonas aeruginosa strain 3: 16 µg/mL (≈ 9.94 µM)
  MIC, Pseudomonas aeruginosa strain 4: 16 µg/mL (≈ 9.94 µM)
  MIC, Pseudomonas aeruginosa strain 5: 8 µg/mL (≈ 4.97 µM)
[5]
  MIC, Escherichia coli strain 1: 16 µg/mL (≈ 9.94 µM)
  MIC, Escherichia coli strain 2: 4 µg/mL (≈ 2.48 µM)
  MIC, Escherichia coli strain 3: 4 µg/mL (≈ 2.48 µM)
  MIC, Escherichia coli strain 4: 4 µg/mL (≈ 2.48 µM)
  MIC, Escherichia coli strain 5: 4 µg/mL (≈ 2.48 µM)
[6]; C. parapsilosis clinical yeast strain 1
  Minimum inhibitory concentration: 128
[6]; C. parapsilosis clinical yeast strain 2
  Minimum inhibitory concentration: 128
[6]; C. parapsilosis clinical yeast strain 3
  Minimum inhibitory concentration: 128
[6]; C. parapsilosis clinical yeast strain 4
  Minimum inhibitory concentration: 8
[7]
  Minimum inhibitory concentration: 128
[8]
  MIC, Proteus mirabilis strain 1: >128 µg/mL
  MIC, Proteus mirabilis strain 2: 64 µg/mL (≈ 39.8 µM)
  MIC, Proteus mirabilis strain 3: 64 µg/mL (≈ 39.8 µM)
  MIC, Proteus mirabilis strain 4: >128 µg/mL
  MIC, Proteus mirabilis strain 5: >128 µg/mL
[9]
  MIC, Serratia marcescens strain 1: >128 µg/mL
  MIC, Serratia marcescens strain 2: >128 µg/mL
  MIC, Serratia marcescens strain 3: >128 µg/mL
  MIC, Serratia marcescens strain 4: >128 µg/mL
  MIC, Serratia marcescens strain 5: 64 µg/mL (≈ 39.8 µM)
[10]
  MIC, Staphylococcus aureus strain 1: 2 µg/mL (≈ 1.24 µM)
  MIC, Staphylococcus aureus strain 2: 4 µg/mL (≈ 2.48 µM)
  MIC, Staphylococcus aureus strain 3: 2 µg/mL (≈ 1.24 µM)
  MIC, Staphylococcus aureus strain 4: 2 µg/mL (≈ 1.24 µM)
  MIC, Staphylococcus aureus strain 5: 2 µg/mL (≈ 1.24 µM)
[11]
  MIC, Streptococcus pneumoniae strain 1: 16 µg/mL (≈ 9.94 µM)
  MIC, Streptococcus pneumoniae strain 2: 8 µg/mL (≈ 4.97 µM)
  MIC, Streptococcus pneumoniae strain 3: 2 µg/mL (≈ 1.24 µM)
  MIC, Streptococcus pneumoniae strain 4: 8 µg/mL (≈ 4.97 µM)
  MIC, Streptococcus pneumoniae strain 5: 8 µg/mL (≈ 4.97 µM)
[12]
  MIC, Enterobacter cloacae strain 1: 4 µg/mL (≈ 2.48 µM)
  MIC, Enterobacter cloacae strain 2: 8 µg/mL (≈ 4.97 µM)
  MIC, Enterobacter cloacae strain 3: 8 µg/mL (≈ 4.97 µM)
  MIC, Enterobacter cloacae strain 4: 8 µg/mL (≈ 4.97 µM)
  MIC, Enterobacter cloacae strain 5: 4 µg/mL (≈ 2.48 µM)
[13]; C. glabrata clinical yeast strain 1
  Minimum inhibitory concentration: 128
[13]; C. glabrata clinical yeast strain 2
  Minimum inhibitory concentration: 128
[13]; C. glabrata clinical yeast strain 3
  Minimum inhibitory concentration: 16
[13]; C. glabrata clinical yeast strain 4
  Minimum inhibitory concentration: 64

## KRKWRWLFKKL [Compound 310]
S. aureus COL (MRSA)
  Minimum inhibitory concentration (MIC), S. aureus COL (MRSA): >64 µg/mL
S. aureus RN4220
  Minimum inhibitory concentration (MIC), S. aureus RN4220: >64 µg/mL
[1]
  Minimum inhibitory concentration (MIC), S. aureus COL + 4 μg/ml Ertapenem: 0.06 µg/mL

## KWIVWRWRFKR [Compound 201]
S. aureus COL (MRSA)
  Minimum inhibitory concentration (MIC), S. aureus COL (MRSA): 64 µg/mL
S. aureus RN4220
  Minimum inhibitory concentration (MIC), S. aureus RN4220: 64 µg/mL
[1]
  Minimum inhibitory concentration (MIC), S. aureus COL + 4 μg/ml Ertapenem: 0.5 µg/mL

## RKWRAMIRLHAKRLRK [Compound 104]
S. aureus COL (MRSA)
  Minimum inhibitory concentration (MIC), S. aureus COL (MRSA): >64 µg/mL
S. aureus RN4220
  Minimum inhibitory concentration (MIC), S. aureus RN4220: >64 µg/mL
[1]
  Minimum inhibitory concentration (MIC), S. aureus COL + 4 μg/ml Ertapenem: 0.25 µg/mL
